Patent US20170056524A1, “COMPOSITIONS AND METHODS FOR TARGETED EPIGENETIC MODIFICATION” (THE TRUSTEES OF THE UNIVERSITY OF PENNSYLVANIA, priority 2014, published 2017)
Entries after “also recorded” stand apart in the source; their conditions may differ.

What was measured:
human β-cells = assay: RNA-Seq of FACS-sorted β-cells from Adox-treated human islets; format: cell-based; conditions: Adox-treated β-cells (Adox-β/α vs β/α ratio)
Procedure: (§1) After total RNA extraction (see above), RNA-Seq libraries were prepared from sorted alpha, beta, and exocrine cells. The detailed protocol can be found on http://ngsc.med.upenn.edu (Lab protocol, Library preparation for RNA-Seq from total RNA). Libraries were single-end sequenced to 100 bp on an Illumina hiSeq2000. Reads from ribosomal RNA and genomic repeats were identified by aligning the 5′ 50 bp of each read to ribosomal sequences and the human repeats in RepBase (version 14.10) using Bowtie (Langmead B., Curr. Protoc. Bioinformatics. 201, December Chapter 11: Unit 117) and allowing for up to three mismatches. The remaining reads were processed with RUM (Grant et al., Bioinformatics 2011. Sep. 15, 27(18): 2518-28) and aligned to the set of known transcripts included in RefSeq, UCSC known genes, and ENSEMBL transcripts, and the human genome (hg18, NCBI build 36.1). Transcript-, exon-, and intron-level quantification was done using only the uniquely aligning reads. This process was repeated separately for each cell type and donor.
(§2) To analyze global gene expression profiles from each sample, RNA-seq read counts aligning to exons of mRNA transcripts in RefSeq were extracted, and these values were normalized to total uniquely aligning reads and transcript length (RPKM). Data for individual genes was summarized by selecting a “representative transcript” with the highest RPKM value for each gene symbol (total=18,822 genes). Gene-level data was then quantile-normalized across all samples to remove bias from the variable expression levels of highly expressed genes, e.g., insulin, glucagon, and highly expressed ncRNAs, which dampen the relative signal of all other genes. Finally, quantile-normalized gene expression values were averaged together for samples of the same cell type to produce a single average gene profile for each cell type. These values were used for all subsequent analyses, including expression comparisons for individual genes of interest.
(§3) Human islets and islets from GlucagonCre; Rosa26EYFP bigenic mice (Herrera et al., 2000; Srinivas et al., 2001) were cultured, treated with 50μM adenosine dialdehyde (Adox, Sigma A7154) for 72 h, FACS sorted as described previously (11), or prepared for immunostaining.
(§4) To investigate the transcriptional changes in Adox-treated human islets and confirm increased PDX1 expression, FACS analysis after Adox-treatment was performed using the same antibody panel as described above, followed by RNA-Seq analysis (n=2 treated α, n=2 treated β, technical replicates) and focused on cell-type-specific hormones and transcription factors. To assess whether Adox-treated β-cells become more α-cell like or vice versa, the ratio of expression levels in untreated β-cells and untreated α-cells (β/α) were first compared to the ratio in Adox-treated β-cells and untreated α-cells (Adox-β/α) (FIG. 6E). A decrease in NKX6-1 and MAFA levels, an increase in PDX1 levels and no change in insulin expression were found and no change in the expression levels of the α-cell specific genes glucagon or ARX were observed, giving no indication for a gain of α-cell identity. Second, the ratio of expression values in untreated α-cells and untreated β-cells (α/β) were compared to the ratio in Adox-treated α-cells and untreated β-cells (Adox-α/β) to elucidate whether Adox-treated α-cells become more ‘β-cell like’ (FIG. 6F).

human islets = assay: Immunofluorescent confocal analysis of Adox-treated human islets; format: cell-based
Procedure: as §3
Immunofluorescent confocal analysis was performed as described previously (Gao et al., Genes Dev. 2010, Jun. 15, 24(12): 1295-305). Sections were blocked with CAS-Block (Invitrogen, 00-8120) and stained using guinea pig anti-insulin 1:500 (Abcam, ab7842), rabbit anti-glucagon 1:250 (Santa Cruz, sc13091), guinea-pig anti-Pdx1 1:1000 (gift from Dr. C. Wright), mouse anti-E-Cadherin 1:500 (BD Transduction Laboratories, 610181), goat anti-GFP (Abcam, ab6673), guinea pig Cy2, guinea pig Cy5, rabbit Cy3, mouse Cy2, mouse Cy5, goat Cy3 (1:500, Jackson-Immunoresearch) antibodies. For quantification of double PDX1+/GCG+ cells, Pdx1-, Glucagon-, E-Cadherin and DAPI staining were performed on untreated (control) and Adox-treated islets. All glucagon-positive cells and all double PDX1+/GCG+ cells were counted manually (8 slides) in each condition and the percentage of PDX1+/GCG+ double-positive cells of all glucagon-positive cells was calculated.

human α-cells = assay: RNA-Seq of FACS-sorted α-cells from Adox-treated human islets; format: cell-based; conditions: Adox-treated α-cells (Adox-α/β vs α/β ratio)
Procedure: as §1, §2, §3, §4

[1] = system: islets from GlucagonCre; Rosa26EYFP mice; assay: Lineage tracing: immunostaining of Adox-treated islets from GlucagonCre; Rosa26EYFP mice; format: cell-based; conditions: mouse islets treated with Adox in vitro; not observed in control islets
Procedure: as §3
Immunofluorescent confocal analysis was performed as described previously (Gao et al., Genes Dev. 2010, Jun. 15, 24(12): 1295-305). […] For quantification of double PDX1+/GCG+ cells, Pdx1-, Glucagon-, E-Cadherin and DAPI staining were performed on untreated (control) and Adox-treated islets. All glucagon-positive cells and all double PDX1+/GCG+ cells were counted manually (8 slides) in each condition and the percentage of PDX1+/GCG+ double-positive cells of all glucagon-positive cells was calculated.
A priori, the co-localization of glucagon with insulin could be due to α- to β-cell fate or β- to α-cell fate conversion. […] For this purpose, islets from GlucagonCre; Rosa26EYFP mice were treated, in which α-cells are permanently marked by yellow fluorescence protein (YFP) expression (27, 28) with Adox in vitro. […]

H3K27me3 = H3K27me3 ChIP-Seq of whole human islets cultured in the absence or presence of Adox; format: cell-based
Procedure: Chromatin immunoprecipitation and preparation of ChIP-Seq libraries was performed on individual cell sorts for each cell type and donor (H3K4me3: Abcam 8580, H3K27me3: Upstate 07-449).
Libraries for H3K4me3, H3K27me3, and input were sequenced on an Illumina GA-IIx to 36 bp. Reads were aligned to hg18 using ELAND. Up to two mismatches were allowed and only reads with a best alignment to a single location were used for further analysis. Enrichment of H3K4me3 was performed on individual donors and cell types using GLITR (FDR=5%) (32) and a pool of human input from various tissues. GLITR was also run on islet cell input samples and any peaks identified in the inputs were filtered from the H3K4me3 enriched regions. Enriched regions in the H3K27me3 data were identified using the program STAR (33) with a sliding window of 5,000 bp, step size of 1,000 bp, and a FDR=0.5%. To ensure fair comparison, H3K4me3 and H3K27me3 profiles from CD4-positive T-cells (23) were determined using the same algorithms and settings.
as §3
The high incidence of bivalent marks in α-cells, the interesting bivalent pattern of β-cell and α-cell-specific transcription factors in α-cells, and the large overlap with bivalently-marked transcriptional regulators in hESC raised the likelihood that epigenomic manipulations could be exploited to reprogram human α-cells towards the β-cell phenotype. Several drugs, such as adenosine dialdehyde (Adox) and 3-Deazaneplanocin A (DZNep) interfere with histone methylation (24). The general histone methyltransferase inhibitor Adox, which amongst others decreases H3K27me3 levels (24), was employed to test whether modulation of the histone methylation status of human pancreatic islets could promote reprogramming. […]

[2] = system: p16 jTALE-DNMT (18-repeat TALE fused to DNMT3a-3L) (Xanthomonas TALE / DNMT3a-DNMT3L, engineered?); assay: cell_activity; conditions: primary human fibroblasts, lentivirus, 4 days, vs mutant; p16 mRNA decreased about 50%; also active in HeLa and hCASMC
[3] = system: p16 TALE-DNMT (24-repeat TALE fused to DNMT3a-3L) (Xanthomonas TALE / DNMT3a-DNMT3L, engineered?); assay: cell_activity; conditions: HeLa transfection, 48 h, bisulfite sequencing, vs E752A mutant; up to 66.5% at individual CpGs
[4] = whole human islets, 50μM Adox 72 h vs untreated

## Nc1ncnc2c1ncn2C(C=O)OC(C=O)CO (stereo not shown) [Adox, adenosine dialdehyde]
Human β-cells
  ARX expression level: no change
  MAFA expression level: decrease
  NKX6-1 expression level: decrease
  glucagon (GCG) expression level: no change
  insulin (INS) expression level: no change
Human islets; 50μM Adox 72 h, not seen in untreated islets
  co-localization of glucagon and insulin granules within the same islet cell: occasional co-occurrence of glucagon and insulin granules within the same islet cell; also recorded: co-localization of glucagon and insulin granules within the same cell; also recorded: co-localization of glucagon and insulin granules in pancreatic cells
Human islets; 50μM Adox 72 h vs untreated
  PDX1 expression in glucagon-positive cells (PDX1+/GCG+ double-positive cells): nuclear PDX1-expression in many glucagon-positive cells; also recorded: many double-positive cells
Human α-cells
  ARX expression level: increase
  MAFA expression level: slight decrease
  NKX6-1 expression level: slight decrease
  PDX1 expression level: increase
  glucagon (GCG) expression level: no change
  insulin (INS) expression level: no change
[1]
  insulin granules in YFP+ (lineage-labeled α) cells: occurrence of insulin granules in YFP+ cells
H3K27me3; human islets treated with Adox
  H3K4me3-enrichment (FIG. 9A legend): decrease
H3K27me3; [4]
  H3K27me3 enrichment at genes carrying a bivalent or monovalent H3K27me3 mark in all pancreatic cell populations: strong decrease
  H3K27me3 enrichment at the ARX, MAFA and PDX1 loci: decrease; also recorded: decreased H3K27me3 levels

## TCCTTGCCAACGCTGGCT (double strand) [CDKN2A (p16) promoter jTALE target, 18 bp]
[2]
  activity (% average increase in CpG methylation): 10

## CCTCCTTCCTTGCCAACGCTGGCT (double strand) [CDKN2A (p16) promoter TALE target, 24 bp]
[3]
  activity (% average increase in CpG methylation): 17
